Reference: patent publication US4686221A, “Quinolinecarboxylic acid compounds and antimicrobial agent containing the same” (Kanebo, Ltd., priority 1985, dated 1987)
Converted amounts (≈) assume the structure as drawn. Where a name gives a salt, the structure may show the parent alone. Read-outs that look alike come from different tables or passages of the source.

Legend:
[1] = test system: Staphylococcus aureus IID 803; test: Antibacterial activity in vitro (minimum inhibitory concentration: MIC); assay type: cell-based
Method: (§1) Staphylococcus aureus IID 803
(§2) (1) Measurement of antibacterial activity in vitro (minimum inhibitory concentration: MIC):
(§3) The test compounds were each dissolved in 0.1N aqueous potassium hydroxide or sterilized distilled water and diluted with sterilized distilled water to give a standard solution (concentration: 1,000 μg/ml). The test was carried out by a method as appointed by Japan Society of Chemotherapy [cf. Chemotherapy, 29, 76-79 (1981) (TOKYO)].

in vivo = details: mouse, po
Method: EXPERIMENT 2: ACUTE TOXICITY (LD50)
The number of dead mice during 2 weeks after administration was counted, and the acute toxicity (LD50) was calculated by Weil method.

[2] = test system: Staphylococcus aureus IID 803; test: Antibacterial activity in vivo (effect against systemic infection: ED50), S. aureus infected mice; parameters: species or system ddY male mice infected with Staphylococcus aureus; details: read-out: Antibacterial activity ED50 (50% effective dose)
Method: as §1
(§4) (2) Measurement of antibacterial activity in vivo (effect against systemic infection: ED50):
(§5) The test microorganism was cultured by stationary culture in an agar medium (Trypto-Soya Agar "Nissui", manufactured by Nissui Seiyaku K.K., Japan) at 37° C. for 16 to 18 hours. The culture was diluted with PBS (Dulbecco's phosphate buffered saline) and then was mixed with an equiamount of 10% (W/V) mucin (BACTO MUCIN BACTERIOLOGICAL, manufactured by Difco Co.). The mixture thus prepared was intraperitoneally inoculated to fasted ddY male mice (4 weeks age, weighing 18-20 g, one group: 5 mice) in a dose of 0.5 ml. The inoculum size was 1.3×10^7 CFU/mouse in case of S. aureus IID 803, and 9.7×10^3 CFU/mouse in case of E. coli KC-14.
(§6) The mice were daily observed for one week, and from the survival number of mice after one week, the 50% effective dose (ED50) was calculated by the Weil method.

Escherichia coli KC-14 [3] = test: Antibacterial activity in vitro (minimum inhibitory concentration: MIC); assay type: cell-based
Method: as §2, §3

Escherichia coli KC-14 [4] = test: Antibacterial activity in vivo (effect against systemic infection: ED50), E. coli infected mice; parameters: species or system ddY male mice infected with Escherichia coli; details: read-out: Antibacterial activity ED50 (50% effective dose)
Method: as §4, §5, §6

[5] = IID803, S. aureus IID 803, in vitro, read-out: Antibacterial activity MIC (minimum inhibitory concentration)
[6] = IID803, 168 h, S. aureus IID 803 systemic infection, mice, oral 1 h after infection, survival after one week
[7] = KC14, E. coli KC-14, in vitro, read-out: Antibacterial activity MIC (minimum inhibitory concentration)
[8] = KC14, 168 h, E. coli KC-14 systemic infection, mice, oral 1 h after infection, survival after one week

| Structure (SMILES) | MIC [1, 5] [µg/mL] | LD50 at 336 h (in vivo) [mg/kg] | ED50 [2, 6] [mg/kg] | MIC (Escherichia coli KC-14 [3]; [7]) [µg/mL] | ED50 (Escherichia coli KC-14 [4]; [8]) [mg/kg] | MIC ([1]; IID803, read-out: Antibacterial activity MIC (minimum inhibitory concentration)) [µg/mL] | ED50 ([2]; IID803, po, 168 h) [mg/kg] | MIC (Escherichia coli KC-14 [3]; KC14, read-out: Antibacterial activity MIC (minimum inhibitory concentration)) [µg/mL] | ED50 (Escherichia coli KC-14 [4]; KC14, po, 168 h) [mg/kg] |
| --- | --- | --- | --- | --- | --- | --- | --- | --- | --- |
| CCn1cc(C(=O)O)c(=O)c2cc(F)c(N3CCNCC3)c(F)c21.Cl [C, 1-Ethyl-6,8-difluoro-1,4-dihydro-7-(piperazin-1-yl)-4-oxoquinoline-3-carboxylic acid hydrochloride, reference compound] | 0.78 | 1070 | 40.3 | 0.1 | 1.46 |  |  |  |  |
| O=C(O)c1cn(C2CC2)c2cc(N3CCN(O)CC3)c(F)cc2c1=O [compound 2, 1-Cyclopropyl-6-fluoro-1,4-dihydro-7-(4-hydroxypiperazin-1-yl)-4-oxoquinoline-3-carboxylic acid hydrochloride 1/4 hydrate] | 0.78 | > 4000 | 17.7 | 0.025 | 0.37 |  |  |  |  |
| CCn1cc(C(=O)O)c(=O)c2cc(F)c(N3CCN(O)CC3)cc21 [compound 1, 1-Ethyl-6-fluoro-1,4-dihydro-7-(4-hydroxypiperazin-1-yl)-4-oxoquinoline-3-carboxylic acid] | 1.56 (≈ 4.65 µM) | > 4000 | 187 | 0.39 (≈ 1.16 µM) | 1.92 |  |  |  |  |
| Cl.O=C(O)c1cn(C2CC2)c2cc(N3CCNCC3)c(F)cc2c1=O [B, 1-Cyclopropyl-6-fluoro-1,4-dihydro-7-(piperazin-1-yl)-4-oxoquinoline-3-carboxylic acid hydrochloride, reference compound] |  |  |  |  |  | 0.78 | 46.7 | 0.0125 | 0.84 |
| CCn1cc(C(=O)O)c(=O)c2cc(F)c(N3CCN(O)CC3)c(F)c21.Cl [compound 3, 1-Ethyl-6,8-difluoro-1,4-dihydro-7-(4-hydroxypiperazin-1-yl)-4-oxoquinoline-3-carboxylic acid hydrochloride] | 0.78 | > 4000 | 26.8 | 0.2 | 0.84 |  |  |  |  |
| Cl.O=C(O)c1cn(C2CC2)c2c(F)c(N3CCNCC3)c(F)cc2c1=O [E, 1-Cyclopropyl-6,8-difluoro-1,4-dihydro-7-(piperazin-1-yl)-4-oxoquinoline-3-carboxylic acid hydrochloride, reference compound] | 0.2 | 1410 | 5.07 | 0.0125 | 0.28 |  |  |  |  |
| Cl.O.O=C(O)c1cn(CCF)c2c(F)c(N3CCN(O)CC3)c(F)cc2c1=O [compound 4, 6,8-Difluoro-1-(2-fluoroethyl)-1,4-dihydro-7-(4-hydroxypiperazin-1-yl)-4-oxoquinoline-3-carboxylic acid hydrochloride monohydrate] | 1.56 | > 4000 | 107 | 0.39 | 1.46 |  |  |  |  |
| Cl.O=C(O)c1cn(C2CC2)c2c(F)c(N3CCN(O)CC3)c(F)cc2c1=O [compound 5, 1-Cyclopropyl-6,8-difluoro-1,4-dihydro-7-(4-hydroxypiperazin-1-yl)-4-oxoquinoline-3-carboxylic acid hydrochloride] | 0.39 | > 4000 | 3.84 | 0.05 | 0.19 |  |  |  |  |
| Cl.O=C(O)c1cn(CCF)c2c(F)c(N3CCNCC3)c(F)cc2c1=O [D, 6,8-Difluoro-1-(2-fluoroethyl)-1,4-dihydro-7-(piperazin-1-yl)-4-oxoquinoline-3-carboxylic acid hydrochloride, reference compound] | 1.56 |  | 123 | 0.2 | 5.82 |  |  |  |  |
| CCn1cc(C(=O)O)c(=O)c2cc(F)c(N3CCNCC3)cc21 [A, 1-Ethyl-6-fluoro-1,4-dihydro-7-(piperazin-1-yl)-4-oxoquinoline-3-carboxylic acid, reference compound] | 1.56 (≈ 4.89 µM) |  | 225 | 0.2 (≈ 0.626 µM) | 5.82 |  |  |  |  |
